Assay results reported in patent US20240415923A1, “RNA-Dependent RNA Polymerase Inhibitory Compounds, Uses in Managing Viral Infections, and Pharmaceutical Compositions” (priority 2023, published 2024).
Counter-ions that a name gives are not always drawn. Starred links: 1 amine or outer side, 2 acyl side, 3 side chain; linkers in the order of their positions; H or OH if unused. Positions of bridges follow the written chain, without caps; N, C: chain ends. Non-standard residues stand in square brackets, D forms with d. Residues, ends and D or L forms follow the SMILES beside them. *: point of attachment. hTyr(3S-OH,4S-OH,3'-OSO3H) = N[C@H](C(=O)O)[C@H](O)[C@@H](O)c1ccc(O)c(OS(=O)(=O)O)c1; Orn(4R-OH,5R-OH) = O=C([C@H](C[C@@H](O)[C@@H](O)N[*:3])N[*:1])[*:2]; Pro(3S-OH,4S-Me) = C[C@H]1CN[C@H](C(=O)O)[C@H]1O; X1 = CCCCCOc1ccc(-c2cc(-c3ccc(C(=O)*)cc3)no2)cc1; Gln(3R-OH) = NC(=O)C[C@@H](O)[C@H](N)C(=O)O; Hyp = O=C(O)[C@@H]1C[C@@H](O)CN1

Key:
NiV polymerase (L-P) = NiV polymerase (L-P) (Nipah virus, UniProt Q997F0); format: biochemical; conditions: 1 mM
[1] = target: T1, SARS-COV2 polymerase (Nsp7-Nsp8-Nsp12) (Severe acute respiratory syndrome coronavirus 2, UniProt P0DTD1); format: biochemical, severe acute respiratory syndrome coronavirus 2 (SARS-COV2); conditions: 1 mM
T1 construct: SARS-COV2 polymerase (Nsp7-Nsp8-Nsp12); made in house

VSBV polymerase (L-P) = format: biochemical, variegated squirrel bornavirus (VSBV); conditions: 1 mM
[2] = target: VSV polymerase (L-P1-106) (Vesicular stomatitis Indiana virus, UniProt P03523); format: biochemical; conditions: 1 mM
RSV polymerase (L-P) [3] = target: T2, RSV polymerase (L-P) (Human respiratory syncytial virus A, UniProt P28887); test: in vitro primer-based RNA synthesis assay, TrC12 template and Tr4 primer; format: biochemical; conditions: 1 mM, TrC12 template, FIG. 3B
RSV polymerase (L-P) [4] = target: T2, RSV polymerase (L-P); test: in vitro de novo RNA synthesis assay, TrC12 template; format: biochemical

T2 sequence (P03421 whole entry): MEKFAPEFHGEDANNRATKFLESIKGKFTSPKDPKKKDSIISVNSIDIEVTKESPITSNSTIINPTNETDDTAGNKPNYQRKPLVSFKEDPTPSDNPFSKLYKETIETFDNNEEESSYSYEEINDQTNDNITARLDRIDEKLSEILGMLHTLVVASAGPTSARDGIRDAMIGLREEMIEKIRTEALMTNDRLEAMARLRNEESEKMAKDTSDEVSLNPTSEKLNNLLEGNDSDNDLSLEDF
T2 sequence (P28887 whole entry): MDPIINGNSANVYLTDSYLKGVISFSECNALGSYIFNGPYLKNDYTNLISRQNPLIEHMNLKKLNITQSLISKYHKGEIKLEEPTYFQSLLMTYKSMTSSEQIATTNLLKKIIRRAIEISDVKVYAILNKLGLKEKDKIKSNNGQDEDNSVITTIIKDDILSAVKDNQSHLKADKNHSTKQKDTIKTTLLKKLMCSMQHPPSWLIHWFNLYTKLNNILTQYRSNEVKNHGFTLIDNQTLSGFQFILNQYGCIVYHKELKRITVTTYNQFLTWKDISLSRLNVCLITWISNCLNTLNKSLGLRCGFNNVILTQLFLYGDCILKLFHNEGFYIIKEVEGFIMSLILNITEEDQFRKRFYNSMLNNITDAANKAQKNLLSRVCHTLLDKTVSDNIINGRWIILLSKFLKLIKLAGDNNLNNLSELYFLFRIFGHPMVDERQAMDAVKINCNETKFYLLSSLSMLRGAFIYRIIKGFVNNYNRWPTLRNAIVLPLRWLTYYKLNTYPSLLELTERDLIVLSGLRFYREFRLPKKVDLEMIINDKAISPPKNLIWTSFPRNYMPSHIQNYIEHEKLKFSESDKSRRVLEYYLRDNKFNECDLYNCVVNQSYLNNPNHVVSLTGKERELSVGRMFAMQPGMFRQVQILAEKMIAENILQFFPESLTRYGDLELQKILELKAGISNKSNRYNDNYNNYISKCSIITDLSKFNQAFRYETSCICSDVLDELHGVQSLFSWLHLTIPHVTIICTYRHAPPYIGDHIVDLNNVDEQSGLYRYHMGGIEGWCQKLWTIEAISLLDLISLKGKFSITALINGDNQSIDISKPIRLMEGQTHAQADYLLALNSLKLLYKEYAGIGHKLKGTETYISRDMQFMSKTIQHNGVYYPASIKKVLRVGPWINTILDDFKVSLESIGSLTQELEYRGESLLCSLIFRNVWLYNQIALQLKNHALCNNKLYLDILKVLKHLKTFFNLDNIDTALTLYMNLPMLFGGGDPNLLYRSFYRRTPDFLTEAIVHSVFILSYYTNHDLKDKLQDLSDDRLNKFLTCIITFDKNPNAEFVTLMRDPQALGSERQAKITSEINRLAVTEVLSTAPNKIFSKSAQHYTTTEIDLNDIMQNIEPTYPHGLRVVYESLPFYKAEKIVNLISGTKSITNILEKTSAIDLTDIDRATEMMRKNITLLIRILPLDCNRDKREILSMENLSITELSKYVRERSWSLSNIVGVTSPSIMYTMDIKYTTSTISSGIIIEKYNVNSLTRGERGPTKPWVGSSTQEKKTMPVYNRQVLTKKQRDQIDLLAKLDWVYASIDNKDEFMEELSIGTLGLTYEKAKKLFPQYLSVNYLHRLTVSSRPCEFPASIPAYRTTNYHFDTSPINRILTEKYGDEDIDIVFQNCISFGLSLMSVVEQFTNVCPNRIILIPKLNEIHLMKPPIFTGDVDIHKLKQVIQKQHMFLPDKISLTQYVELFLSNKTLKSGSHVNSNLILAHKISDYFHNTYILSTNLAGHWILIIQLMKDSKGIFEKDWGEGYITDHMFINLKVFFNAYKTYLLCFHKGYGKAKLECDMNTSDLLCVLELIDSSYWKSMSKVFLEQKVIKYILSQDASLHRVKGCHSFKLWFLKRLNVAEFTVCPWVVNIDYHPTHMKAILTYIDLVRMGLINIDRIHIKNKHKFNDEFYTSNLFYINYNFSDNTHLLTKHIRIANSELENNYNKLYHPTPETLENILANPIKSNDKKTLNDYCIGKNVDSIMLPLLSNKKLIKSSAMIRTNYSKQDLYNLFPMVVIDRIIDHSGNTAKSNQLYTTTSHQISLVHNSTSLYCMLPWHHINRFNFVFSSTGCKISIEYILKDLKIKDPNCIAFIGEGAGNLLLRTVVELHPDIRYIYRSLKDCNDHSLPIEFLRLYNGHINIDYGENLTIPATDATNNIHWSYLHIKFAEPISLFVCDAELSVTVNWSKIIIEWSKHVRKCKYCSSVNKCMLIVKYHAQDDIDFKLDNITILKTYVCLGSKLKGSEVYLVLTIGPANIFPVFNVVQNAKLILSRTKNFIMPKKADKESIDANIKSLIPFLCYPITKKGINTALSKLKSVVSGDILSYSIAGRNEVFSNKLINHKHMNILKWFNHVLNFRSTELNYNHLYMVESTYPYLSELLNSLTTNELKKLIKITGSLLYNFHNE
Sequence of VSV polymerase (L-P1-106) (P03523 whole entry, looked up): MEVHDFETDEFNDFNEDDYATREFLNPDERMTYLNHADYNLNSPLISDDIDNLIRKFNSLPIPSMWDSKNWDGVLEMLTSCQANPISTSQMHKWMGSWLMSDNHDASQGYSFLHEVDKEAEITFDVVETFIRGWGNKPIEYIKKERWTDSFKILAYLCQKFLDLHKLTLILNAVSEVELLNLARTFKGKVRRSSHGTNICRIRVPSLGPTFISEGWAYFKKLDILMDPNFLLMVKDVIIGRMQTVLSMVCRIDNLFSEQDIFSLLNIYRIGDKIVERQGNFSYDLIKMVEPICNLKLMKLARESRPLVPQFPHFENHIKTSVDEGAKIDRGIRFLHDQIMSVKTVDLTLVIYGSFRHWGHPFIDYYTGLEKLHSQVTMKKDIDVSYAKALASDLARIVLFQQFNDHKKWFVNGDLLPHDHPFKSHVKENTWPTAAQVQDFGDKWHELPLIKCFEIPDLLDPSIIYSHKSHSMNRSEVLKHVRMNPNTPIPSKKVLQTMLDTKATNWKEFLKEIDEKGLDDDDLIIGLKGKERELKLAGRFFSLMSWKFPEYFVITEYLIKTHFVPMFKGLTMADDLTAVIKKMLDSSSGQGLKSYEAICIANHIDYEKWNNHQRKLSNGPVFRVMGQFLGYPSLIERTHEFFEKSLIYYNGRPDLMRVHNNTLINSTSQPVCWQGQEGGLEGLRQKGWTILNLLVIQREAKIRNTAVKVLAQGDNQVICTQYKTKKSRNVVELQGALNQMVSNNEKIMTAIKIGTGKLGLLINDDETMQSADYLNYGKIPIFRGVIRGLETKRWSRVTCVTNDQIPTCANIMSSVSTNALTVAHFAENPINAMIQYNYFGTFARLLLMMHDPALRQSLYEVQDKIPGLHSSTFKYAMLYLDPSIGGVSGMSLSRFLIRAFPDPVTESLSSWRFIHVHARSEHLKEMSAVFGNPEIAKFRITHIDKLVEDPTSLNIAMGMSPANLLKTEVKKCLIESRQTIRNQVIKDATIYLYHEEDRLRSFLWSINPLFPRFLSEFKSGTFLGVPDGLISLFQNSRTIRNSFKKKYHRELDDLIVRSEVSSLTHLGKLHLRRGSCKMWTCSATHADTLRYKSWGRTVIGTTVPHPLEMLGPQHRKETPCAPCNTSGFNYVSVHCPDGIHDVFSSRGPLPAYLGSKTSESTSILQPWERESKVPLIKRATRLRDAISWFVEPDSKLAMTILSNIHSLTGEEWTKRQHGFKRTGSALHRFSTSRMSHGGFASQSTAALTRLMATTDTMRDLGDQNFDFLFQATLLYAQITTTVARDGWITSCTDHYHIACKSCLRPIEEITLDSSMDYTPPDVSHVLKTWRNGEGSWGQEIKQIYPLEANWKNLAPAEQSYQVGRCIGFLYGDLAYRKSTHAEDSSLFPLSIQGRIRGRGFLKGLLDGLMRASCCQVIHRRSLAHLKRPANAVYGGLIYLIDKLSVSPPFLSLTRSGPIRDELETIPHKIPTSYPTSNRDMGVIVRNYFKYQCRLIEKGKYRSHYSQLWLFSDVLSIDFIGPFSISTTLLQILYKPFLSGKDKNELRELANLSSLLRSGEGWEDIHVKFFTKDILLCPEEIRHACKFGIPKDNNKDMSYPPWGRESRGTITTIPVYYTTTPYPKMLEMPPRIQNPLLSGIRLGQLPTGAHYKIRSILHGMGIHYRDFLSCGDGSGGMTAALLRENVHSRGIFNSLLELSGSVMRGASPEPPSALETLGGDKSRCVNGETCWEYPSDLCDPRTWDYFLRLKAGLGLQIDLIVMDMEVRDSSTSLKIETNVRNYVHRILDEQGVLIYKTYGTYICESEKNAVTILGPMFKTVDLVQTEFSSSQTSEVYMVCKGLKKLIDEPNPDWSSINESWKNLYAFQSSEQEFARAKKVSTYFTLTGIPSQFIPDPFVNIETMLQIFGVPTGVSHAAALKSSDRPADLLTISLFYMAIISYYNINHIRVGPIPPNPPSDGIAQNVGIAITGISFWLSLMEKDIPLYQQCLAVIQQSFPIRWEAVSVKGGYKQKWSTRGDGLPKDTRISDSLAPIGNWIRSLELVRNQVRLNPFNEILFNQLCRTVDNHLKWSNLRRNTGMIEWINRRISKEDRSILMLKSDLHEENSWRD

SMILES	inhibition of RNA synthesis activity of NiV polymerase (NiV polymerase (L-P))	inhibition of RNA synthesis activity of SARS-COV2 polymerase [1]	inhibition of RNA synthesis activity of VSBV polymerase (VSBV polymerase (L-P))	inhibition of RNA synthesis activity of VSV polymerase [2]	primer-based RNA synthesis activity of RSV polymerase, rank among the tested molecules (RSV polymerase (L-P) [3])	impact on the RSV polymerase activity in time course (RSV polymerase (L-P) [4]; 0, 25 and 50 μM, FIG. 5A)	activity of RSV polymerase in time course at 50 μM (RSV polymerase (L-P) [4]; 50 μM versus 0 and 25 μM, FIG. 5A)	RSV polymerase activity retained relative to the control group (RSV polymerase (L-P) [4]; 1 mM small molecule in 10% DMSO, 10% DMSO negative control, FIG. 2)	inhibition of RSV polymerase in the in vitro assay (in words) (RSV polymerase (L-P) [4]; 1 mM, FIG. 2)	de novo RNA synthesis activity of RSV polymerase, rank among the tested molecules (RSV polymerase (L-P) [4]; 1 mM, FIG. 3A, compared with 10 other molecules)
Cc1ccc(-n2[nH]c(C)c(N=Nc3cccc(-c4cccc(-c5nnn[nH]5)c4)c3O)c2=O)cc1C [Totrombopag, 2-(3,4-dimethylphenyl)-4-((2-hydroxy-3′-(1H-tetrazol-5-yl)-[1,1′-biphenyl]-3-yl)diazenyl)-5-methyl-1,2-dihydro-3H-pyrazol-3-one]	inhibit	inhibit	inhibit	inhibit	–	–	–	–	–	–
CCCCCOc1ccc(-c2cc(-c3ccc(C(=O)N[C@H]4C[C@@H](O)[C@@H](O)NC(=O)[C@@H]5[C@@H](O)[C@@H](C)CN5C(=O)[C@H]([C@H](O)CC(N)=O)NC(=O)[C@H]([C@H](O)[C@@H](O)c5ccc(O)c(OS(=O)(=O)O)c5)NC(=O)[C@@H]5C[C@@H](O)CN5C(=O)[C@H]([C@@H](C)O)NC4=O)cc3)no2)cc1 [Micafungin, 5-(2-(20-(3-amino-1-hydroxy-3-oxopropyl)-2,11,12,15-tetrahydroxy-6-(1-hydroxyethyl)-16-methyl-5,8,14,19,22,25-hexaoxo-9-(4-(5-(4-(pentyloxy)phenyl)isoxazol-3-yl)benzamido)tetracosahydro-1H-dipyrrolo[2,1-c: 2′,1′-1][1,4,7,10,13,16]hexaazacyclohenicosin-23-yl)-1,2-dihydroxyethyl)-2-hydroxyphenyl hydrogen sulfate] (X1-[Orn(4R-OH,5R-OH)]T[Hyp][hTyr(3S-OH,4S-OH,3'-OSO3H)][Gln(3R-OH)][Pro(3S-OH,4S-Me)]; lactam 1-C)	inhibit	inhibit	inhibit	inhibit	best inhibitors	time and concentration dependent	lowest at all time points	29.6%	significant inhibitory activity	lowest
CN1C(N)=NC(C)(c2cc(NC(=O)c3ccc(F)cn3)ccc2F)CS1(=O)=O (stereo not drawn) [Verubecestat, N-(3-(3-amino-2,5-dimethyl-1,1-dioxido-5,6-dihydro-2H-1,2,4-thiadiazin-5-yl)-4-fluorophenyl)-5-fluoropicolinamide]	–	–	–	–	–	–	–	–	showed inhibition	–
